The source made the active and inactive calls. The rule behind the calls is not given here.
Tests used:
[1] = target: V. cholerae BH1651 luxOD47E, luciferase light induction, 6 h; assay: Luciferase light induction in v cholerae bh1651, agonist dose response, confirmatory (AID 624254)
[2] = as above; conditions: V. cholerae BH1651 luxOD47E, luciferase light induction, 6 h; at 50 µM (top of the series)

COc1ccc(Cl)cc1S(=O)(=O)NC(C)C(=O)NCCCn1ccnc1 (stereo not given)
AC50 [1]: 180 nM

Cc1ccc(N2C(=O)C(CN(C)C)C2c2ccccc2)cc1 (stereo not given)
AC50 [1]: 417 nM

CC(C)COC(=O)CNc1n[nH]c(=S)[nH]c1=O
AC50 [1]: < 23.5 nM

O=C(COC(=O)/C=C/c1ccccc1)NC1CCCC1
AC50 [1]: > 50000 nM (inactive)

CC(NC(=O)CN1CCN(c2ccccc2F)CC1)c1ccccc1 (stereo not given)
AC50 [1]: > 50000 nM (inactive)

CC(C)c1ccc(CNc2nnnn2C)cc1
AC50 [1]: 101 nM

O=C(c1cc2cc(Cl)ccc2oc1=O)N1CCOCC1
AC50 [1]: 67.8 nM

CCc1ccc(NS(=O)(=O)c2cccs2)cc1
AC50 [1]: 212 nM

O=C(Nc1nnc(C(F)(F)F)s1)C1COc2ccccc2O1 (stereo not given)
AC50 [1]: 13700 nM

COC(=O)C(C)N(c1ccc(C)cc1)S(=O)(=O)c1c(C)[nH]c(=O)[nH]c1=O (stereo not given)
AC50 [1]: > 50000 nM (inactive)

CC(C)C(NC(=O)c1ccc(S(=O)(=O)N2CCOCC2)cc1)c1nc2ccccc2[nH]1 (stereo not given)
AC50 [1]: 15300 nM

Cc1nc2ncnn2c(C)c1Cc1c(Cl)cccc1Cl
AC50 [1]: 1220 nM

COC(=O)c1ccccc1NC(=O)Cn1cc2c(n1)CCC(C)C2 (stereo not given)
AC50 [1]: 1480 nM

CCOC(=O)CSc1nc(N)c(C#N)c(-c2cccs2)c1C#N
AC50 [1]: 11700 nM

CCC(Oc1ccccc1)C(=O)Nc1ccc(-c2nnc(-c3ccco3)o2)cc1 (stereo not given)
AC50 [1]: > 50000 nM (inactive)

CCCS(=O)(=O)N1CCCC(C(=O)N2CCN(c3ccccc3)CC2)C1 (stereo not given)
AC50 [1]: 41.3 nM

O=C(CNC(=O)c1cccc(S(=O)(=O)N2CCc3ccccc32)c1)Nc1ccc(F)c(F)c1F
AC50 [1]: 516 nM

C=Cn1c(C(=O)O)ccc1-c1ccc(OC)cc1
AC50 [1]: < 380 nM

O=C(Nc1nnc(-c2ccc3c(c2)OCCO3)o1)C1CCCCC1
AC50 [1]: < 23.5 nM

COc1ccc(N2CC(C(=O)Nc3cc(C(F)(F)F)ccc3N3CCCC3)CC2=O)c(OC)c1 (stereo not given)
AC50 [1]: 1220 nM

COc1ccc(N2CCN(C(=O)COc3ccc4ccccc4c3)CC2)cc1
AC50 [1]: 35100 nM

CCOc1ccc(CCNC(=O)COC(=O)Cc2ccc(F)cc2)cc1OCC
AC50 [1]: 95.3 nM

Cc1ccc2cc3c(NC(=O)c4ccco4)nn(C)c3nc2c1
AC50 [1]: < 23.5 nM

CC(=O)N1CCN(C(=O)COc2ccc(Br)cc2)CC1
AC50 [1]: > 50000 nM (inactive)

CCC(C)n1cnc2c(=O)oc3ccccc3c21 (stereo not given)
AC50 [1]: 149 nM

CCOC(=O)c1cnc(-n2nc(C)cc2C)nc1N(C)C
AC50 [1]: 67.6 nM

C[C@H]1CN([C@@H](C)CO)C(=O)c2cccc(NC(=O)Nc3ccc4c(c3)OCO4)c2O[C@@H]1CN(C)S(=O)(=O)c1ccccc1
AC50 [1]: 2250 nM

O=C(CN1CCN(c2ccc(F)cc2)CC1)Nc1cc(C(F)(F)F)ccc1Cl
AC50 [1]: > 50000 nM (inactive)

CCOC(=O)c1cnc2nc(C(F)(F)F)[nH]n2c1=O
AC50 [1]: 15700 nM

COc1ccc(NC(=O)CCS(=O)(=O)c2ccc3c(c2)CCCN3C(C)=O)cc1Cl
AC50 [1]: 113 nM

CCn1nnnc1SCC(=O)c1ccc2c(c1)OCCO2
activation (light increase) [2]: inactive

COCCSc1ccccc1C(=O)Nc1nnc(COC)s1
activation (light increase) [2]: inactive

COc1ccc(CCN(C)C(=O)c2cc(S(=O)(=O)N3CCCCCC3)ccc2OC)cc1OC
activation (light increase) [2]: inactive

CCOC(=O)C1(CCOc2ccccc2)CCN(Cc2cc(OC)cc(OC)c2)CC1
activation (light increase) [2]: inactive

COc1ccccc1CCN1CCCC(CN(C)C(=O)c2ccco2)C1 (stereo not given)
activation (light increase) [2]: inactive

COC(=O)c1cnn(-c2nc(-c3ccccc3)cs2)c1N
activation (light increase) [2]: inactive

CCc1ccc(OCCNC(=O)c2cccs2)cc1
activation (light increase) [2]: inactive

Cc1cccc(C(=O)OCC(=O)NCC(C)C)c1O
activation (light increase) [2]: inactive

O=C(c1ccccc1)N1CCC(c2nc(-c3ccc(S(=O)(=O)N4CCOCC4)cc3)no2)CC1
activation (light increase) [2]: inactive

COc1ccc(Cl)cc1NC(=O)CN(C)C(=O)CNC(=O)C12CC3CC(CC(C3)C1)C2
activation (light increase) [2]: inactive

COC(C(=O)Nc1ccccc1C(=O)N1CCOCC1)c1ccccc1 (stereo not given)
activation (light increase) [2]: inactive

Cc1nn2cnnc2c(C)c1Cc1c(F)cccc1Cl
activation (light increase) [2]: inactive

O=C(CNc1cc(S(=O)(=O)N2CCOCC2)ccc1N1CCCC1)Nc1ccc(Cl)cc1
activation (light increase) [2]: inactive

CC(=O)N1CCN(C(=O)c2cc(-c3ccc(Cl)s3)nc3ccccc23)CC1
activation (light increase) [2]: inactive

O=C(NCc1nc(-c2ccccc2)no1)c1cccs1
activation (light increase) [2]: inactive

O=[N+]([O-])c1ccc(S(=O)(=O)NCC(c2cccnc2)N2CCc3ccccc32)cc1 (stereo not given)
activation (light increase) [2]: inactive

O=c1c2ccccc2nnn1CSc1nnc(-c2cccnc2)n1-c1ccccc1F
activation (light increase) [2]: inactive

COc1ccc(S(=O)(=O)N2CCCCC2)cc1NC(=O)c1ccc(OC)c(OC)c1
activation (light increase) [2]: inactive

CC(C#N)On1c(SC(C)C#N)nc2ccccc2c1=O (stereo not given)
activation (light increase) [2]: inactive

CCN(CC(=O)NCc1ccc(Cl)cc1)C(=O)CSc1ccccc1
activation (light increase) [2]: inactive

CCN1CCCC1CNC(=O)c1cc(OC)c(OC)c(OC)c1 (stereo not given)
activation (light increase) [2]: inactive

CCCNC(=O)COC(=O)/C=C/c1ccco1
activation (light increase) [2]: inactive

Cc1ccc(Oc2ccc(S(=O)(=O)N3CCOCC3)cc2C(N)=O)c(-n2nc3ccccc3n2)c1
activation (light increase) [2]: inactive

Cc1noc(C)c1NC(=O)Nc1cccc2c1O[C@H](CN(C)S(=O)(=O)c1cccs1)[C@H](C)CN([C@H](C)CO)C2=O
activation (light increase) [2]: inactive

COc1ccc(S(=O)(=O)N2CCSC2c2ccc(N)cc2)cc1 (stereo not given)
activation (light increase) [2]: inactive

Cc1ccccc1C(=O)Nc1cccc(N)c1
activation (light increase) [2]: inactive

Cc1cc(C(=O)OCC(=O)Nc2ccccc2F)c(C)o1
activation (light increase) [2]: inactive

Cc1cccc(OC(C)C(=O)NC2CCS(=O)(=O)C2)c1C (stereo not given)
activation (light increase) [2]: inactive

CC(C)(C)c1nc(N2CCN(C(=O)c3ccco3)CC2)c2nnn(Cc3ccccc3)c2n1
activation (light increase) [2]: inactive

O=C(O)C1C2CCC(C2)C1C(=O)Nc1cc(F)ccc1F (stereo not given)
activation (light increase) [2]: inactive

CCOC(=O)C1=C(C)NC(SC)=NC1c1ccc(OC)cc1 (stereo not given)
activation (light increase) [2]: inactive

COc1ccc(NC(=O)CN(C)C(=O)c2cccc(S(=O)(=O)N3CCN(C)CC3)c2)cc1
activation (light increase) [2]: inactive

COC(=O)c1nnn(-c2nonc2N)c1CSc1nc2ccccc2s1
activation (light increase) [2]: inactive

O=C(OC1CCN(c2ncc(C(F)(F)F)cc2Cl)CC1)c1ccc(Cl)cc1
activation (light increase) [2]: inactive

O=C(NCC1CCCO1)C1CCN(C(=O)c2ccc(Cl)cc2)CC1 (stereo not given)
activation (light increase) [2]: inactive

NC(=O)c1cc(Br)cc(C2CCCCC2)c1O
activation (light increase) [2]: inactive

O=C(Nc1cccc(-c2ccc(N3CCOCC3)nn2)c1)c1ccc([N+](=O)[O-])cc1
activation (light increase) [2]: inactive

Cc1ccc(OCCC(=O)OCC(=O)Nc2ccc3c(c2)OCO3)cc1
activation (light increase) [2]: inactive

CCn1c(CC(=O)Nc2cccc(Cl)c2Cl)nnc1SCCOc1ccc(OC)cc1
activation (light increase) [2]: inactive

COc1cccc(NC(=O)C2CC(=O)OC23CCOC(C)(C)C3)c1 (stereo not given)
activation (light increase) [2]: inactive

O=C(COC(=O)/C=C/c1ccc(OC(F)F)cc1)NC1CCCCCC1
activation (light increase) [2]: inactive

C[C@H](NC(=O)c1ccco1)C(=O)Nc1ccc(S(=O)(=O)N2CCCC2)cc1
activation (light increase) [2]: inactive

CCC1Nc2ncnc(N3CCN(c4ccccc4)CC3)c2N(Cc2ccccc2)C1=O (stereo not given)
activation (light increase) [2]: inactive

C=Cn1c(C(=O)O)ccc1-c1ccc(Cl)cc1
activation (light increase) [2]: inactive

COc1cc(NC(=O)Cc2cccs2)ccc1-n1cnnn1
activation (light increase) [2]: inactive

Cc1cc(C)n2cc(COc3ccc4ccccc4c3)nc2n1
activation (light increase) [2]: inactive

CCS(=O)(=O)N1CCN(C(=O)CCC2CCCC2)CC1
activation (light increase) [2]: inactive

COc1cc(C2N(c3ccccn3)C(=O)C3CCCN32)cc(OC)c1OC (stereo not given)
activation (light increase) [2]: inactive

CCOc1ccc(Nc2nc3c(c(=O)[nH]2)CCCC3)cc1
activation (light increase) [2]: inactive

C[C@@H]1CN([C@@H](C)CO)C(=O)c2cccc(NC(=O)Nc3ccc4c(c3)OCO4)c2O[C@H]1CN(C)S(=O)(=O)c1ccccc1
activation (light increase) [2]: inactive

Cc1ccccc1-n1nnnc1-c1ccccc1
activation (light increase) [2]: inactive

CCSc1nnc(NC(=O)c2ccc3ccccc3n2)s1
activation (light increase) [2]: inactive

COc1ccc(CCNC(=O)c2nnn(-c3ccc4c(c3)OCCO4)c2N)cc1OC
activation (light increase) [2]: inactive

CCOC(=O)C1CCCN(C(=O)c2cc3c(OC)c(OC)c(OC)cc3[nH]2)C1 (stereo not given)
activation (light increase) [2]: inactive

O=C(NCc1ccccc1)C1CCCN(S(=O)(=O)c2cccnc2)C1 (stereo not given)
activation (light increase) [2]: inactive

CCc1cccc(C)c1N(C(=O)Cn1c(CO)nc2ccccc21)C(C)COC (stereo not given)
activation (light increase) [2]: inactive

CN1CC(=O)N(CC(=O)Nc2ccc3c(c2)CCC3)C1=O
activation (light increase) [2]: inactive

C[C@@H]1CN([C@@H](C)CO)C(=O)c2cccc(NC(=O)Nc3ccc4c(c3)OCO4)c2O[C@@H]1CN(C)S(=O)(=O)c1ccccc1
activation (light increase) [2]: inactive

O=c1ncn(-c2cccc(Cl)c2)c2ccccc12
activation (light increase) [2]: inactive

Cc1cccc(N2CCN(C(=O)C34CC5CC(CC(C5)C3)C4)CC2)c1C
activation (light increase) [2]: inactive

COc1ccccc1NC(=O)COC(=O)c1cc(C)oc1C
activation (light increase) [2]: inactive

O=C(COC(=O)C1CCN(c2ccc(C(F)(F)F)cn2)CC1)NC1CCCCC1
activation (light increase) [2]: inactive

COCCNC(=O)c1cnn2c1NC(c1ccco1)CC2C(F)(F)F (stereo not given)
activation (light increase) [2]: inactive

CCN(CC)S(=O)(=O)c1cccc(C(=O)OCC(=O)C23CC4CC(CC(C4)C2)C3)c1
activation (light increase) [2]: inactive

O=C(NCCN1CCOCC1)c1cccc(NS(=O)(=O)c2ccc(Br)cc2)c1
activation (light increase) [2]: inactive

CC(C)CNC(=O)COC(=O)/C=C/c1ccco1
activation (light increase) [2]: inactive

O=C(Oc1nsnc1N1CCCCC1)N1CCOCC1
activation (light increase) [2]: inactive

Cc1ccc(S(=O)(=O)NCCC(=O)OCC(=O)N(Cc2ccccc2)C(C)(C)C)cc1C
activation (light increase) [2]: inactive

O=C(Cc1ccc(-c2ccccc2)cc1)NC1CCCC1
activation (light increase) [2]: inactive

CCCn1nnnc1NCc1ccc(N(C)C)cc1
activation (light increase) [2]: inactive

Reference: PubChem BioAssay AID624254 (Broad Institute, 2012)
